{
  "source": "patent US10487129B2",
  "about": "“Stabilized insulinotropic peptides and methods of use” (Dana-Farber Cancer Institute, Inc., priority 2010, dated 2019)",
  "key": {"chymotrypsin [1]": {"molecular_target": "T1, chymotrypsin (Bos taurus, UniProt P00766)", "type": "in vitro ADME", "set-up": "purchased Sigma", "details": "pH 7", "description": "A major limitation of peptides as therapeutics is their susceptibility to rapid proteolytic degradation. […] One of the potential benefits of a covalent crosslinking strategy to enforce peptide α-helicity is shielding of the vulnerable amide bonds from proteolysis. Because proteases require that peptides adopt an extended conformation to hydrolyze amide bonds, the structural constraint afforded by the hydrocarbon staple can render crosslinked peptides protease-resistant."}, "[2]": {"assay": "Circular dichroism thermal unfolding, 5-83° C.", "type": "physicochemical"}, "pepsin": {"molecular_target": "pepsin (Sus scrofa, UniProt P00791)", "sequence (P00791 60-385)": "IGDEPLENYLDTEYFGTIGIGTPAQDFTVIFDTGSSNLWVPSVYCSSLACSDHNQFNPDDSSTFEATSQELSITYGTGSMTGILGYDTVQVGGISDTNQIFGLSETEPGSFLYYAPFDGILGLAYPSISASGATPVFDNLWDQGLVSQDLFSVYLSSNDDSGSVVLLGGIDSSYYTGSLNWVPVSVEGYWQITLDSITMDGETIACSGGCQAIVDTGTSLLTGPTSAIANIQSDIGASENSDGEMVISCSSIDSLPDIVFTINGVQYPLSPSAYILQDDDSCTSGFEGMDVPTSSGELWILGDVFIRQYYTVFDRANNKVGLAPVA", "assay": "in vitro", "type": "in vitro ADME", "details": "pH 2", "quoted_text": "In vitro proteolytic degradation of structured peptides was measured by LC/MS (Agilent 1200) using the following parameters: 20 μL injection, 0.6 mL flow rate, 15 min run time consisting of a gradient of water (0.1% formic acid) to 20-80% acetonitrile (0.075% formic acid) over 10 min, 4 min wash to revert to starting gradient conditions, and 0.5 min post-time. The DAD signal was set to 280 nm with an 8 nm bandwidth and MSD set to scan mode with one channel at (M+2H)/2, +1 mass units and the other at (M+3H)/3, +1 mass units. Integration of each MSD signal yielded areas under the curve of >10^8 counts. Reaction samples were composed of 5 μL peptide in DMSO (1 mM stock) and 195 μL of buffer consisting of 50 mM phosphate buffer pH 7.4 containing 2 mM CaCl2. Upon injection of the 0 hr time point sample, 2 μL of 50 ng/μL chymotrypsin (Sigma) was added and the amount of intact peptide quantitated by serial injection over time. An internal control of acetylated tryptophan carboxamide at a concentration of 100 μM was used to normalize each MSD data point. A plot of MSD area versus time yielded an exponential decay curve and half-lives were determined by nonlinear regression analysis using Prism software (GraphPad). The assay was also performed using trypsin and pepsin in their appropriate buffer conditions."}, "chymotrypsin [3]": {"molecular_target": "T1, chymotrypsin", "assay": "Chymotrypsin proteolysis of gp41-derived HIV-1 fusion inhibitor peptides", "procedure": "In vitro proteolytic degradation of structured peptides was measured by LC/MS (Agilent 1200) using the following parameters: 20 μL injection, 0.6 mL flow rate, 15 min run time consisting of a gradient of water (0.1% formic acid) to 20-80% acetonitrile (0.075% formic acid) over 10 min, 4 min wash to revert to starting gradient conditions, and 0.5 min post-time. The DAD signal was set to 280 nm with an 8 nm bandwidth and MSD set to scan mode with one channel at (M+2H)/2, +1 mass units and the other at (M+3H)/3, +1 mass units. […] Reaction samples were composed of 5 μL peptide in DMSO (1 mM stock) and 195 μL of buffer consisting of 50 mM phosphate buffer pH 7.4 containing 2 mM CaCl2. Upon injection of the 0 hr time point sample, 2 μL of 50 ng/μL chymotrypsin (Sigma) was added and the amount of intact peptide quantitated by serial injection over time. An internal control of acetylated tryptophan carboxamide at a concentration of 100 μM was used to normalize each MSD data point. A plot of MSD area versus time yielded an exponential decay curve and half-lives were determined by nonlinear regression analysis using Prism software (GraphPad). The assay was also performed using trypsin and pepsin in their appropriate buffer conditions."}, "[4]": {"assay": "Circular dichroism melting of gp41 peptides", "type": "physicochemical", "details": "circular dichroism melting profile", "procedure": "The alpha-helicity of stapled modified polypeptides was compared to their unmodified counterparts by circular dichroism. CD spectra were obtained on an Aviv spectropolarimeter at 20° C. using the following standard measurement parameters: wavelength, 190-260 nm; step resolution, 0.5 nm; speed, 20 nm/sec; accumulations, 10; response, 1 sec; bandwidth, 1 nm; path length, 0.1 cm. The alpha-helical content of each peptide was calculated by dividing the mean residue ellipticity [θ]222obs by the reported [θ]222obs for a model helical peptide (Forood, B., E. J. Feliciano, and K. P. Nambiar, PNAS, 1993. 90(3): p. 838-842; J. Martin Scholtz, Biopolymers, 1991. 31(13): p. 1463-1470; Lawless, M. K., et al., Biochemistry, 1996. 35(42): p. 13697-13708) or using, for example, the Aviv machine using CDNN software developed by Brohm in order to deduce five different secondary structure fractions (helix, parallel and antiparallel beta-sheet, beta-turn and random coil). Protein Engineering, 1992. 5(3); p. 191-195. Thermal stability is assessed by acquiring circular dichroism spectra across a broad temperature range and determining the melting temperatures for each constrained peptide."}, "[5]": {"system": "isolated pancreatic islets", "assay": "Glucose-stimulated insulin release (GSIS) from isolated pancreatic islets", "type": "cell-based, mouse", "details": "10 nM peptide, 1.67 mM to 16.7 mM glucose, 1 hour at 37° C., insulin ELISA", "procedure": "Stock solutions of SAH-Ex and SAH-GLP peptides were generated by dissolving the lyophilized powders in deionized water at 100 μM. The following treatment solutions were made for batch GSIS assays: 1.67 mM glucose, 16.7 mM glucose, 1.67 mM glucose+10 nM peptide, 16.7 mM glucose+10 nM peptide all in 1×KRB buffer, 2 mM CaCl2, 0.05% BSA. Islets isolated from wild-type mouse pancreas were washed 3 times with KRB buffer and 5 islets per experimental tube were incubated in KRB buffer containing 1.67 mM glucose for 30 min at 37° C. Islets were then pelleted and the buffer replaced with the treatment solutions listed above. Each experimental condition was examined in replicates of n=8. After 1 hour incubation at 37° C., islets were pelleted and the supernatants collected for glucose stimulated insulin release measurement. The pellets are solubilized to assess intracellular insulin content to normalize for cell number. Insulin was measured by ELISA using mouse insulin as a standard (Insulin ELISA Kit, cat. 80-INSMS-E01, ALPCO). For the insulin ELISA plots, there is a small increase in the amount of insulin released in response to escalation of the glucose dose from 1.67 mM to 16.7 mM."}},
  "note": "Positions of bridges follow the written chain, without caps; N, C: chain ends. Non-standard residues stand in square brackets, D forms with d. Residues, ends and D or L forms follow the SMILES beside them. No end group written: not given here. S5 = C=CCCC[C@](C)(N)C(=O)O; Nle = CCCC[C@H](N)C(=O)O",
  "data": [
    {"compound": "CC[C@H](C)[C@H](NC(=O)[C@H](Cc1ccccc1)NC(=O)[C@H](CC(C)C)NC(=O)[C@H](CCCNC(=N)N)NC(=O)[C@@H](NC(=O)[C@H](C)NC(=O)[C@H](CCC(=O)O)NC(=O)[C@H](CCC(=O)O)NC(=O)[C@H](CCC(=O)O)NC(=O)[C@]1(C)CCCC=CCCC[C@](C)(NC(=O)[C@H](CC(=O)O)NC(=O)[C@H](CO)NC(=O)[C@@H](NC(=O)[C@H](Cc2ccccc2)NC(=O)[C@@H](NC(=O)CNC(=O)[C@H](CCC(=O)O)NC(=O)CNC(=O)[C@@H](N)Cc2c[nH]cn2)[C@@H](C)O)[C@@H](C)O)C(=O)N[C@@H](CO)C(=O)N[C@@H](CCCCN)C(=O)N[C@@H](CCC(N)=O)C(=O)N1)C(C)C)C(=O)N[C@@]1(C)CCCC=CCCC[C@@](C)(C(=O)NCC(=O)NCC(=O)N2CCC[C@H]2C(=O)N[C@@H](CO)C(=O)N[C@@H](CO)C(=O)NCC(=O)N[C@@H](C)C(=O)N2CCC[C@H]2C(=O)N2CCC[C@H]2C(=O)N2CCC[C@H]2C(=O)N[C@@H](CO)C(N)=O)NC(=O)[C@H](CCCCN)NC(=O)[C@H](CC(C)C)NC(=O)[C@H](Cc2c[nH]c3ccccc23)NC1=O", "note": "(single isomer, unassigned) [SAH-Ex(A, B)]", "values": [
      {"measurement": "enhancement in chymotrypsin resistance compared to the singly stapled peptides", "setting": "chymotrypsin [1]", "value": "up to 4 fold"},
      {"measurement": "enhancement in chymotrypsin resistance compared to the template peptide", "setting": "chymotrypsin [1]", "value": 8, "unit": "fold"},
      {"measurement": "slope of temperature melt line", "setting": "[2]", "value": "flatter sloped line"},
      {"measurement": "enhancement in pepsin resistance compared to the template peptide", "setting": "pepsin", "value": 13, "unit": "fold"},
      {"measurement": "half-life at 25 μM", "setting": "pepsin", "value": 172, "unit": "min"}
    ]},
    {"compound": "C=CCCC[C@](C)(NC(=O)[C@H](CC(N)=O)NC(=O)[C@H](CCCCN)NC(=O)[C@H](CCC(=O)O)NC(=O)[C@](C)(CCCC=C)NC(=O)[C@H](CCC(N)=O)NC(=O)[C@H](CC(N)=O)NC(=O)[C@H](CCC(N)=O)NC(=O)[C@H](CO)NC(=O)[C@H](CCC(=O)O)NC(=O)[C@H](CCC(=O)O)NC(=O)[C@@H](NC(=O)[C@H](CC(C)C)NC(=O)[C@H](CO)NC(=O)[C@H](Cc1c[nH]cn1)NC(=O)[C@@H](NC(=O)[C@H](CC(C)C)NC(=O)[C@H](CO)NC(=O)[C@@H](NC(=O)[C@H](Cc1ccc(O)cc1)NC(=O)[C@H](CC(N)=O)NC(=O)[C@H](CC(N)=O)NC(=O)[C@@H](NC(=O)[C@H](CCC(=O)O)NC(=O)[C@](C)(CCCC=C)NC(=O)[C@H](CC(=O)O)NC(=O)[C@H](Cc1c[nH]c2ccccc12)NC(=O)[C@H](CCC(=O)O)NC(=O)[C@](C)(CCCC=C)NC(=O)[C@H](Cc1c[nH]c2ccccc12)NC(=O)[C@@H](NC(=O)[C@@H](N)CCCC)[C@@H](C)O)[C@@H](C)CC)[C@@H](C)O)[C@@H](C)CC)[C@@H](C)CC)C(=O)N[C@@H](CCC(N)=O)C(=O)N[C@@H](CCC(=O)O)C(=O)N[C@@H](CC(C)C)C(=O)N[C@@H](CC(C)C)C(=O)N[C@@H](CCC(=O)O)C(N)=O", "note": "[UAH-gp41(626-662)(A,B)] (H-[Nle]TW[S5]EWD[S5]EINNYTSLIHSLIEESQNQ[S5]EKN[S5]QELLE-NH2; N-terminus assumed)", "values": [
      {"measurement": "half-life", "setting": "chymotrypsin [3]", "value": 36, "unit": "min"},
      {"measurement": "protection from chymotrypsin proteolysis, result in words", "setting": "chymotrypsin [3]", "value": "does not confer significant protection"},
      {"measurement": "Tm", "setting": "[4]", "value": 27, "unit": "°C"}
    ]},
    {"compound": "GLP1: Glucagon-like Peptide-1, insulin secretagogue (HAEGTFTSDVSSYLEGQAAKEFIAWLVKGR; ends and bridges not checked; UniProt P01275 98-127, looked up)", "values": [
      {"measurement": "glucose-stimulated insulin release (GSIS)", "setting": "[5]", "value": "substantial increase in GSIS"}
    ]},
    {"compound": "CCCC[C@H](NC(=O)[C@H](Cc1c[nH]c2ccccc12)NC(=O)[C@@H](NC(=O)[C@@H](N)CCCC)[C@@H](C)O)C(=O)N[C@@H](CCC(=O)O)C(=O)N[C@@H](Cc1c[nH]c2ccccc12)C(=O)N[C@@H](CC(=O)O)C(=O)N[C@@H](CCCNC(=N)N)C(=O)N[C@@H](CCC(=O)O)C(=O)N[C@H](C(=O)N[C@@H](CC(N)=O)C(=O)N[C@@H](CC(N)=O)C(=O)N[C@@H](Cc1ccc(O)cc1)C(=O)N[C@H](C(=O)N[C@@H](CO)C(=O)N[C@@H](CC(C)C)C(=O)N[C@H](C(=O)N[C@@H](Cc1c[nH]cn1)C(=O)N[C@@H](CO)C(=O)N[C@@H](CC(C)C)C(=O)N[C@H](C(=O)N[C@@H](CCC(=O)O)C(=O)N[C@@H](CCC(=O)O)C(=O)N[C@@H](CO)C(=O)N[C@@H](CCC(N)=O)C(=O)N[C@@H](CC(N)=O)C(=O)N[C@@H](CCC(N)=O)C(=O)N[C@@]1(C)CCCC=CCCC[C@@](C)(C(=O)N[C@@H](CCC(N)=O)C(=O)N[C@@H](CCC(=O)O)C(=O)N[C@@H](CC(C)C)C(=O)N[C@@H](CC(C)C)C(=O)N[C@@H](CCC(=O)O)C(N)=O)NC(=O)[C@H](CC(N)=O)NC(=O)[C@H](CCCCN)NC(=O)[C@H](CCC(=O)O)NC1=O)[C@@H](C)CC)[C@@H](C)CC)[C@@H](C)O)[C@@H](C)CC", "note": "[SAH-gp41(626-662)(B)] (H-[Nle]TW[Nle]EWDREINNYTSLIHSLIEESQNQ[S5]EKN[S5]QELLE-NH2; staple 28-32; N-terminus assumed)", "values": [
      {"measurement": "half-life", "setting": "chymotrypsin [3]", "value": 77, "unit": "min"}
    ]}
  ]
}
